What was measured:
[1] = test system: Haliotis rufescens larvae; conditions: cited from earlier work; for induction of larvae settlement: in vivo
[2] = test system: chemically induced electrographic seizures; test: Focal perfusion of rat cerebral cortex, chemically induced electrographic seizures; type: in vivo; conditions: focal perfusion of local areas of rat cerebral cortex; personal experience
[3] = test system: larvae of Haliotis discus hannai; conditions: in vivo; cited from earlier work
[4] = test system: two different species of Haliotis; conditions: cited from earlier work
Haliotis rufescens = conditions: in vivo; cited from earlier work
[5] = target: T1, thyroxine-binding globulin (Homo sapiens, UniProt P05543); conditions: cited from earlier work
T1 sequence (P05543 21-415): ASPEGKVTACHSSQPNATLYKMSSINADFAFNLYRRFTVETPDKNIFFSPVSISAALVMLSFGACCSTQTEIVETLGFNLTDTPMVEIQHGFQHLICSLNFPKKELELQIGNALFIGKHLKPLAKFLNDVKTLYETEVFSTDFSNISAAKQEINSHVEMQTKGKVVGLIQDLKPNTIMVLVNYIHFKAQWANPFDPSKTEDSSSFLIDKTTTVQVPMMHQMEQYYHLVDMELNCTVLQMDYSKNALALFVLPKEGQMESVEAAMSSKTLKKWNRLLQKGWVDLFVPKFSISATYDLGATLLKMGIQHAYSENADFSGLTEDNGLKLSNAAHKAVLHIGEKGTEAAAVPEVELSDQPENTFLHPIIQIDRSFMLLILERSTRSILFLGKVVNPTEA

| Structure (SMILES) | induction of larvae settlement [1] | also measured |
| --- | --- | --- |
| NC(=O)CC[C@H](N)C(=O)O [L-glutamine] | completely ineffective |  |
| NCC(=O)O [glycine] | can also induce Haliotis larvae settlement |  |
| [Cl-].[K+] [potassium chloride] |  | effect on chemically induced electrographic seizures [2]: may prevent or abort |
| [K+] [potassium] |  | promotion of settlement ([1]; higher concentrations of K^+): will not promote settlement; effect on settlement induction by GABA ([1]; low concentration of K^+): inhibit induction by GABA; larva attached ([1]; ˜10 mM above that found in seawater, within 72 hours): up to 90% |
| NCCCC(=O)O [GABA, γ-aminobutyric acid] |  | larval attachment ([1]; 10^−6 molar in sea water): 96-100% |
| NCCc1c[nH]cn1 [histamine] | not able to induce |  |
| CBr [bromomethane] |  | induction in larvae [3]: induction has been triggered |
| NCCC(=O)O [β-alanine] | can also induce Haliotis larvae settlement |  |
| CNC[C@H](O)c1ccc(O)c(O)c1 [epinephrine] | not able to induce |  |
| NCc1cc(=O)[nH]o1 [muscimol] | can also induce Haliotis larvae settlement |  |
| NCCCCC(=O)O [δ-amniovaleric] | can also induce Haliotis larvae settlement |  |
| [Mg+2] [Mg^+2] | not able to induce |  |
| NC[C@H](O)c1ccc(O)c(O)c1 [norepinephrine] | not able to induce |  |
| N[C@@H](Cc1cc(I)c(Oc2ccc(O)c(I)c2)c(I)c1)C(=O)O [T3] |  | induction of larval metamorphosis [4]: can induce larval metamorphosis |
| NCCc1c[nH]c2ccc(O)cc12 [serotonin] | not able to induce |  |
| N[C@@H](Cc1cc(I)c(Oc2cc(I)c(O)c(I)c2)c(I)c1)C(=O)O [L-thyroxine] |  | induction of larval metamorphosis (Haliotis rufescens): could induce larval metamorphosis; induction of larval metamorphosis [4]: can induce larval metamorphosis |
| CN1C(=O)CN=C(c2ccccc2)c2cc(Cl)ccc21 [diazepam] |  | inhibition of thyroxine binding to thyroxine-binding globulin [5]: competitively inhibit |
| [Na+] [Na^+] | not able to induce |  |
| CCCC(=O)O [n-butyric acid] | not able to induce |  |
| Br [Br^−] |  | induction of settlement by anion replacement ([1]; replacing 25-75% of the Cl^− in seawater): may be induced |
| CCCCN [n-butylamine] | not able to induce |  |
| N[C@@H](CCC(=O)O)C(=O)O [L-glutamate] | did slowly promote larval settlement |  |
| NCCCCCC(=O)O [ε-amniocaproic acid] | can also induce Haliotis larvae settlement |  |
| N[C@H](CCC(=O)O)C(=O)O [D-glutamate] | completely ineffective |  |

Source: patent publication US20080014145A1, “ABALONE SETTLEMENT BIOASSAY FOR ANTI-SEIZURE SUBSTANCE SCREENING” (priority 2006, published 2008)
